The record followed here is PubChem BioAssay (NCI).

Test systems include HCT-116 colon; HOP-62 NSCLC; HOP-92 NSCLC; KM12 colon; MOLT-4 leukemia; SK-OV-3 ovarian; SNB-19 CNS; SR leukemia; EKVX NSCLC; SK-MEL-2 melanoma.
Test in all cases: NCI-60 cell line screen, 48 h

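Exposure lasted 48 hours, with cells grown in 96-well plates and compounds tested at five concentrations. GI50 is the concentration that inhibits growth by half. TGI denotes the concentration required for complete inhibition of growth.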 *1 amine or outer side, *2 acyl side, *3 side chain or, on linkers, in order; H or OH if unused. Where a SMILES comes first, the peptide text is derived from it. [ ]: non-standard residue; d: D form. X32 = C[C@H](N[*:1])C(=O)C(C)(C)C(=O)[*:2]; Hmpa(2S,3S) = CC[C@H](C)[C@H](O)C(=O)O; NMeY = CN[C@@H](Cc1ccc(O)cc1)C(=O)O; NMeL = CN[C@@H](CC(C)C)C(=O)O; NMeV = CN[C@H](C(=O)O)C(C)C; βAla = NCCC(=O)O

Regarding `CCOC(=O)NC(Nc1ccc(C(=O)OCC)cc1)(C(F)(F)F)C(F)(F)F`, the TGI in the experiment on HCT-116 colon, with HOP-62 NSCLC, in the experiment with HOP-92 NSCLC, with KM12 colon, in the experiment on MOLT-4 leukemia and in the experiment on SK-OV-3 ovarian was above 100 µM in each case. Also, the TGI in the experiment with SNB-19 CNS and in the experiment on SR leukemia was above 100 µM throughout.

Turning to `CC(=O)OCC1OC(n2c(-c3ccc(C)cc3)cc(-c3ccccc3)c(C#N)c2=S)C(OC(C)=O)C(OC(C)=O)C1OC(C)=O` (centres undefined), the TGI in the experiment with EKVX NSCLC, in the experiment with HCT-116 colon, with HOP-62 NSCLC, with HOP-92 NSCLC, in the experiment on KM12 colon and in the experiment with MOLT-4 leukemia was above 100 µM each time. Moreover, the TGI in the experiment with SK-OV-3 ovarian, in the experiment on SNB-19 CNS and with SR leukemia was above 100 µM in each case.

Regarding `O=C(NCCCCCCNC(=O)c1cc(-c2ccccc2)nc2ccccc12)c1cc(-c2ccccc2)nc2ccccc12`, the TGI in the experiment on EKVX NSCLC, with HCT-116 colon, in the experiment on HOP-62 NSCLC, in the experiment with HOP-92 NSCLC, with MOLT-4 leukemia and with SK-OV-3 ovarian was above 100 µM each time. In addition, the TGI with SNB-19 CNS and with SR leukemia was above 100 µM in each case.

Consider `O=C(NNC(=S)NC1CCCCC1)c1csc(NC(=S)NC2CCCCC2)n1`, for which the TGI with EKVX NSCLC is above 100 µM; in the experiment with HCT-116 colon it was 16.5 µM; in the experiment on HOP-62 NSCLC, 35.2 µM; with KM12 colon, 87.6 µM; with MOLT-4 leukemia it was 25.5 µM; in the experiment on SK-MEL-2 melanoma it was 33.7 µM. For the same compound, the TGI is 28.6 µM with SK-OV-3 ovarian, 44.8 µM with SNB-19 CNS and above 100 µM in the experiment on SR leukemia.

Consider `Cc1ccc(S(=O)(=O)N2CCCSCC2)cc1`, for which the TGI with HCT-116 colon, in the experiment with HOP-92 NSCLC, in the experiment with KM12 colon, in the experiment with MOLT-4 leukemia, in the experiment with SK-OV-3 ovarian and in the experiment with SNB-19 CNS was above 100 µM in each case. The compound further yielded a TGI in the experiment with SR leukemia above 100 µM.

On to `CN(C)c1nc(Cl)c2c(-c3ccccc3)c(-c3ccccc3)oc2n1`, for which the TGI in the experiment with EKVX NSCLC is above 100 µM; in the experiment with HCT-116 colon it was above 100 µM; with HOP-92 NSCLC, above 100 µM; with KM12 colon, above 100 µM; in the experiment with MOLT-4 leukemia it was 96.2 µM; in the experiment on SK-OV-3 ovarian, above 100 µM. Moreover, the TGI with SNB-19 CNS and in the experiment on SR leukemia was above 100 µM throughout.

For the compound `CC1=C(C)Cc2c(O)ccc(O)c2C1`, the TGI in the experiment on EKVX NSCLC is 29.5 µM; with HCT-116 colon, 29.5 µM; in the experiment with HOP-62 NSCLC, 50.1 µM; in the experiment with HOP-92 NSCLC it was 36.4 µM; in the experiment on KM12 colon, above 100 µM; in the experiment with MOLT-4 leukemia, 97.2 µM. The TGI with SK-OV-3 ovarian was above 100 µM; in the experiment with SNB-19 CNS, above 100 µM; with SR leukemia it was 38.8 µM.

In the case of `CC[C@H](C)[C@@H]1OC(=O)CCNC(=O)[C@@H](C)NC(=O)C(C)(C)C(=O)[C@H](C)NC(=O)[C@H](Cc2ccc(OC)cc2)N(C)C(=O)[C@H](C(C)C)N(C)C(=O)CNC(=O)[C@H](CC(C)C)N(C)C(=O)CNC1=O` (cyclo(G[NMeL]G[NMeV][NMeY](Me)[X32][dA][βAla][Hmpa(2S,3S)])), the TGI was 22.7 µM in the experiment with EKVX NSCLC; above 27.8 µM in the experiment on HCT-116 colon; 10.6 µM in the experiment on HOP-62 NSCLC; 4.61 µM in the experiment with HOP-92 NSCLC; above 26.9 µM in the experiment with MOLT-4 leukemia; 6.48 µM in the experiment on SK-MEL-2 melanoma. The TGI was 4.11 µM in the experiment with SK-OV-3 ovarian, 9.63 µM with SNB-19 CNS and above 25.9 µM in the experiment with SR leukemia.

For `C=C1C2C[C@@H]3O[C@H]4C[C@H]5O[C@@]6(C[C@@H]7O[C@]8(C[C@H](C)[C@@H]9O[C@@H]%10CC(CO)O[C@@H]%10C[C@@H]9O8)C[C@H](C)[C@@H]7O6)C[C@H]5O[C@H]4[C@H](C)[C@H]3OC(=O)C[C@H]3CC[C@@H]4OC5[C@H]6O[C@]7(CC[C@H]8CC(=C)[C@H](CC[C@@H](C[C@H]1C)O2)O8)CC6O[C@@H]5[C@@H](O7)[C@H]4O3` (some centres undefined), the TGI in the experiment with EKVX NSCLC, in the experiment with HOP-62 NSCLC, in the experiment with HOP-92 NSCLC, in the experiment with MOLT-4 leukemia, in the experiment with SK-MEL-2 melanoma and in the experiment with SK-OV-3 ovarian was above 1 µM in each case. The TGI in the experiment on SNB-19 CNS and in the experiment on SR leukemia was above 1 µM each time.

Regarding `COc1cc(CNNC(N)=S)cc(OC)c1OC`, the TGI with EKVX NSCLC, with HCT-116 colon, in the experiment with HOP-62 NSCLC, in the experiment on HOP-92 NSCLC, with KM12 colon and with MOLT-4 leukemia was above 100 µM in each case. In addition, the TGI in the experiment on SNB-19 CNS and in the experiment with SR leukemia was above 100 µM throughout.

As for `C(=C\c1ccco1)/c1cccc(/C=C/c2ccco2)n1`, the TGI in the experiment on EKVX NSCLC, in the experiment with HCT-116 colon, in the experiment with HOP-62 NSCLC, with HOP-92 NSCLC, in the experiment on KM12 colon and with MOLT-4 leukemia was above 50 µM throughout. The TGI with SK-OV-3 ovarian, in the experiment with SNB-19 CNS and in the experiment with SR leukemia was above 50 µM throughout.

Take `COc1cc2c(cc1OCCCC(=O)Nc1ccc3ccc4cccc5ccc1c3c45)N=C[C@@H]1CCCN1C2=O`: the GI50 is 29.9 nM with EKVX NSCLC; below 10 nM with HOP-62 NSCLC; 147 nM in the experiment with HOP-92 NSCLC; 104 nM in the experiment on KM12 colon; 98.7 nM in the experiment on MOLT-4 leukemia; below 10 nM with SK-MEL-2 melanoma. Further, the GI50 in the experiment on SK-OV-3 ovarian is 10.3 µM; in the experiment with SR leukemia it was below 10 nM. The TGI in the experiment on EKVX NSCLC is 0.169 µM; with HOP-62 NSCLC it was 1.74 µM; with HOP-92 NSCLC it was 1.07 µM; in the experiment with KM12 colon, 0.725 µM; in the experiment on MOLT-4 leukemia it was 0.355 µM; with SK-MEL-2 melanoma, below 0.01 µM. Moreover, the TGI in the experiment with SK-OV-3 ovarian came to 46.9 µM.

For the compound `BrC(c1cccc2ccccc12)c1cccc2ccccc12`, the TGI in the experiment on EKVX NSCLC was 56.4 µM; with HCT-116 colon, 27.8 µM; in the experiment with HOP-62 NSCLC it was 27.1 µM; with HOP-92 NSCLC, 28.8 µM; with KM12 colon, 28.8 µM; in the experiment on MOLT-4 leukemia, above 100 µM. Besides, the TGI in the experiment with SK-MEL-2 melanoma is 30.1 µM; in the experiment with SNB-19 CNS, above 100 µM; in the experiment with SR leukemia it was above 100 µM.

Regarding `Nc1nc2c3nc(Nc4ccccc4)sc3nc(=O)n2c2sc(Nc3ccccc3)nc12`, the TGI with EKVX NSCLC, in the experiment with HCT-116 colon, with HOP-62 NSCLC, in the experiment with HOP-92 NSCLC, in the experiment with MOLT-4 leukemia and in the experiment on SK-OV-3 ovarian was above 100 µM in each case. Further, the TGI with SNB-19 CNS and in the experiment on SR leukemia was above 100 µM throughout.
